Source: ChEMBL document CHEMBL5291721, “A preclinical secondary pharmacology resource illuminates target-adverse drug reaction associations of marketed drugs” (Nat Commun, 2023)

Tests used:
[1] = target: T1, Alpha-1A adrenergic receptor (Homo sapiens, UniProt P35348); assay type: functional, cell-based
T1 sequence (P35348 whole entry): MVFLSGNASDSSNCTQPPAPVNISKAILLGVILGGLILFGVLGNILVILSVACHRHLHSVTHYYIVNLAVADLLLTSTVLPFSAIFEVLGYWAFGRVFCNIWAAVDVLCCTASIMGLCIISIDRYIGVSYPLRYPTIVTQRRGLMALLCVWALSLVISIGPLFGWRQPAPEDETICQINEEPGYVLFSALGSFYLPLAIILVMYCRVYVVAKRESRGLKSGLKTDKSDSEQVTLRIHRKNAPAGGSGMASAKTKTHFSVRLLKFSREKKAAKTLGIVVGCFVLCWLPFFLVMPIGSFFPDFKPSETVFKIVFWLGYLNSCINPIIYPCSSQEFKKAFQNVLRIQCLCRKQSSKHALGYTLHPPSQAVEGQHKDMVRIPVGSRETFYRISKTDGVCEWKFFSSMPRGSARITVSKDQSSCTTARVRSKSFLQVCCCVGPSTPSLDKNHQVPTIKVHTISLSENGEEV

[2] = target: T2, 5-hydroxytryptamine receptor 2B (Homo sapiens, UniProt P41595); assay type: functional, cell-based
T2 sequence (P41595 whole entry): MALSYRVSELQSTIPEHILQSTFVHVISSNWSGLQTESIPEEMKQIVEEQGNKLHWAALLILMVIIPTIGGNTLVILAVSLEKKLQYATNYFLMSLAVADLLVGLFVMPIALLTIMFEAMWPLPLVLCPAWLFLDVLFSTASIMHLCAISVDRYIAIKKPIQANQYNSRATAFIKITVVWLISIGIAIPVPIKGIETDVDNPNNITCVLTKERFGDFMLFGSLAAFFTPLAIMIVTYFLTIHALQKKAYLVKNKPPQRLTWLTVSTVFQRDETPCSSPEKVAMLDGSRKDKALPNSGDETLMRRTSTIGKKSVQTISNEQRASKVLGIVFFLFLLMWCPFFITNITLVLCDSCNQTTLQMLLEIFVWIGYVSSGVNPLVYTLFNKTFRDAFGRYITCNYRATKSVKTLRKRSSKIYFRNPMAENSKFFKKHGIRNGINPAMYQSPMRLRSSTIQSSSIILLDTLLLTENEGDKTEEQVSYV

Histamine H3 receptor = Histamine H3 receptor (Homo sapiens, UniProt Q9Y5N1)
Sequence of Histamine H3 receptor (Q9Y5N1 whole entry): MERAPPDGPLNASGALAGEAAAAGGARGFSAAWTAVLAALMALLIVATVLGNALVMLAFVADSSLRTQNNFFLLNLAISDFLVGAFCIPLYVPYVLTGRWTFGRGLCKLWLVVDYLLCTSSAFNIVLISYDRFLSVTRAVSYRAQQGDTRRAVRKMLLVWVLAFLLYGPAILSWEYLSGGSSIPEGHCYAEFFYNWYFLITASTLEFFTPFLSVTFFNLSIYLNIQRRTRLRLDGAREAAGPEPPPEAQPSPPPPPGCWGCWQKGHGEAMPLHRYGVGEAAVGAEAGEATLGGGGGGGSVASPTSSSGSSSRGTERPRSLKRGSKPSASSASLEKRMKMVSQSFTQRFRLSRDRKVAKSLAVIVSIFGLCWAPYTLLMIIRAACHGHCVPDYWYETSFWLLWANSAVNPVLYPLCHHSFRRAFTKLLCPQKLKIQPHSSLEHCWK

Mu-type opioid receptor = Mu-type opioid receptor (Homo sapiens, UniProt P35372)
Sequence of Mu-type opioid receptor (P35372 whole entry): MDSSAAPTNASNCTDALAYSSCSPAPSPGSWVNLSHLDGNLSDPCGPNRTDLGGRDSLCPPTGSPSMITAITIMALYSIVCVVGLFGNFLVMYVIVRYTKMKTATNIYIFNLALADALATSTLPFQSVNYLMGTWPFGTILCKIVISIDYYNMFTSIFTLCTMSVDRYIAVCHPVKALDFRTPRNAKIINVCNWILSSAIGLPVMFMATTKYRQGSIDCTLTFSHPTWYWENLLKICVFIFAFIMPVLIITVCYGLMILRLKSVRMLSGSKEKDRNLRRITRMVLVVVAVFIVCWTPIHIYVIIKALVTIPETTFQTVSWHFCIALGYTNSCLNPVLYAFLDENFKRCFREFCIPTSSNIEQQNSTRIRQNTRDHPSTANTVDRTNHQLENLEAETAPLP

[3] = target: Beta-2 adrenergic receptor (Homo sapiens, UniProt P07550); assay type: functional, cell-based
Sequence of Beta-2 adrenergic receptor (P07550 whole entry): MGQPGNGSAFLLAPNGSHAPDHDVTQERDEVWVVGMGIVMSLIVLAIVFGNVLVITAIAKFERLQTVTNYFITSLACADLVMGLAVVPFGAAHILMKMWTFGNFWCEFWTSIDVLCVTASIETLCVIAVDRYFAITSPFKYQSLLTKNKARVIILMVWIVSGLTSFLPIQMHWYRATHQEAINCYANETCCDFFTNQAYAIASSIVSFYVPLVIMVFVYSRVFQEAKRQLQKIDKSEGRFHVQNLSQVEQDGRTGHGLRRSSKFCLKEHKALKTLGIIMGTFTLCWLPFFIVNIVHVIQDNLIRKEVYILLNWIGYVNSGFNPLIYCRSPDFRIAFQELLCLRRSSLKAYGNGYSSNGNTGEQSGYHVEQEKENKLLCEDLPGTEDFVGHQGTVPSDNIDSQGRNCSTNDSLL

Progesterone receptor = target: T3, Progesterone receptor (Homo sapiens, UniProt P06401); assay type: functional
T3 sequence (P06401 whole entry): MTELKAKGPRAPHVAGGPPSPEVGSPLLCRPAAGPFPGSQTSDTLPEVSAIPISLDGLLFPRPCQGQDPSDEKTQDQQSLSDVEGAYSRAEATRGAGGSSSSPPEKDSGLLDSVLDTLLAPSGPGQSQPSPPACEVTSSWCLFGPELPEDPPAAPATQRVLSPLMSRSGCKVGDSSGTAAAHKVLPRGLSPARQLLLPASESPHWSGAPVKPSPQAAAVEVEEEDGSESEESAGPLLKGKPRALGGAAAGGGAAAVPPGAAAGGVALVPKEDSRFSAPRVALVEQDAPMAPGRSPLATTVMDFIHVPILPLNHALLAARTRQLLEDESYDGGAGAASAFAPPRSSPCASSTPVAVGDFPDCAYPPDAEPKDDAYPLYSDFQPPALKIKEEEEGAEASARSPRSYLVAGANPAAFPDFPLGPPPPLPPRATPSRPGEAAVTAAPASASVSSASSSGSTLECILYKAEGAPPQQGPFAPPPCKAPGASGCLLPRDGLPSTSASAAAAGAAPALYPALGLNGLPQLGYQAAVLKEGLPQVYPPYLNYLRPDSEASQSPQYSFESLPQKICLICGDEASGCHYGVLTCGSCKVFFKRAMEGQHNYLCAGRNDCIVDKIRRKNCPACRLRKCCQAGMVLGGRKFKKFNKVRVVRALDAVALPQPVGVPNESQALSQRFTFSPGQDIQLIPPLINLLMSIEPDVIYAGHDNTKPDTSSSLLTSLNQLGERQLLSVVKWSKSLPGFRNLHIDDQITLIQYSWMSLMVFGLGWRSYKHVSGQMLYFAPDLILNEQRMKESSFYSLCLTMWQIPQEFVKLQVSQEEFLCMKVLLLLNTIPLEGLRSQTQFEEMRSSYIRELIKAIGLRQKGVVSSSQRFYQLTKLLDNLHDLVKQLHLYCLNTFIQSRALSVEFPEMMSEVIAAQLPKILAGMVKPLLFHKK

Cannabinoid receptor 1 = Cannabinoid receptor 1 (Homo sapiens, UniProt P21554); assay type: functional, cell-based
Sequence of Cannabinoid receptor 1 (P21554 whole entry): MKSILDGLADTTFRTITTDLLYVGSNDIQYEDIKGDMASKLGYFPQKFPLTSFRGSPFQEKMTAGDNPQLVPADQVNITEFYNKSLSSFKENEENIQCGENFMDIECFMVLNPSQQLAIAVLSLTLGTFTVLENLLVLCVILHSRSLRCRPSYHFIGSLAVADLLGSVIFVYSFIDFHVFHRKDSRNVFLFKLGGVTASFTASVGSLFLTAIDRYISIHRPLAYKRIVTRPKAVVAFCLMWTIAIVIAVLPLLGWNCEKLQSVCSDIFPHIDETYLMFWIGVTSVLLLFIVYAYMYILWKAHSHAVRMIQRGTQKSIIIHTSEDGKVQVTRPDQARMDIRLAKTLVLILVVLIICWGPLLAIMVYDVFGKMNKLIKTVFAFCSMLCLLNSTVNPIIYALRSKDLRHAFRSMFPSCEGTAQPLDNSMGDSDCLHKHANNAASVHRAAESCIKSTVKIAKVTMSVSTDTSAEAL

[4] = target: T1, Alpha-1A adrenergic receptor
Histamine H2 receptor = Histamine H2 receptor (Homo sapiens, UniProt P25021); assay type: functional, cell-based
Sequence of Histamine H2 receptor (P25021 whole entry): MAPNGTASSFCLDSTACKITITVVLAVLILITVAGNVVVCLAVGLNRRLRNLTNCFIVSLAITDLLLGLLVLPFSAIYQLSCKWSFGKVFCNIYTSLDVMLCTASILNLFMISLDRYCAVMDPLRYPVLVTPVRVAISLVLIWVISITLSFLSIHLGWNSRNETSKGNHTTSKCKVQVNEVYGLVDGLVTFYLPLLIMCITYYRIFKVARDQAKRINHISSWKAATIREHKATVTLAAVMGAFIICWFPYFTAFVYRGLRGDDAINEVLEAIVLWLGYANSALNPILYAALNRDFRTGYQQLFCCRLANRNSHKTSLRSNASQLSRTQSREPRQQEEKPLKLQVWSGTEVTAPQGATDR

Acetylcholinesterase = Acetylcholinesterase (Homo sapiens, UniProt P22303); assay type: functional
Sequence of Acetylcholinesterase (P22303 whole entry): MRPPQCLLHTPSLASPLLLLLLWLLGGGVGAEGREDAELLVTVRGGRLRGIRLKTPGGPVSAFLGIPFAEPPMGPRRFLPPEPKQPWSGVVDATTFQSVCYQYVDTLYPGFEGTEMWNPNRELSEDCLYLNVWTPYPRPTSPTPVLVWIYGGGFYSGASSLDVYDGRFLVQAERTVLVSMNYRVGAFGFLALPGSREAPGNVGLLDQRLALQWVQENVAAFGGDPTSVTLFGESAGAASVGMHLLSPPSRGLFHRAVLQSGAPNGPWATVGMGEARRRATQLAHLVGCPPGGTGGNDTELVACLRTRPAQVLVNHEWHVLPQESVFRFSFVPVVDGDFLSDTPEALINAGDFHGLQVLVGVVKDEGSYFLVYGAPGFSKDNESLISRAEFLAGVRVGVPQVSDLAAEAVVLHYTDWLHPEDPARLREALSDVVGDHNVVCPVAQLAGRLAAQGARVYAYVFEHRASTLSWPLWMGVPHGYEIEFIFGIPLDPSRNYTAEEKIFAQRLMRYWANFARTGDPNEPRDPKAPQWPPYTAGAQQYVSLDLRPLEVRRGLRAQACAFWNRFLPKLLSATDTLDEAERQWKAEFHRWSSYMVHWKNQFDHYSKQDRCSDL

[5] = target: T2, 5-hydroxytryptamine receptor 2B; assay type: functional, cell-based; remark: listed apart in the source
[6] = target: Sodium-dependent dopamine transporter (Homo sapiens, UniProt Q01959)
Sequence of Sodium-dependent dopamine transporter (Q01959 whole entry): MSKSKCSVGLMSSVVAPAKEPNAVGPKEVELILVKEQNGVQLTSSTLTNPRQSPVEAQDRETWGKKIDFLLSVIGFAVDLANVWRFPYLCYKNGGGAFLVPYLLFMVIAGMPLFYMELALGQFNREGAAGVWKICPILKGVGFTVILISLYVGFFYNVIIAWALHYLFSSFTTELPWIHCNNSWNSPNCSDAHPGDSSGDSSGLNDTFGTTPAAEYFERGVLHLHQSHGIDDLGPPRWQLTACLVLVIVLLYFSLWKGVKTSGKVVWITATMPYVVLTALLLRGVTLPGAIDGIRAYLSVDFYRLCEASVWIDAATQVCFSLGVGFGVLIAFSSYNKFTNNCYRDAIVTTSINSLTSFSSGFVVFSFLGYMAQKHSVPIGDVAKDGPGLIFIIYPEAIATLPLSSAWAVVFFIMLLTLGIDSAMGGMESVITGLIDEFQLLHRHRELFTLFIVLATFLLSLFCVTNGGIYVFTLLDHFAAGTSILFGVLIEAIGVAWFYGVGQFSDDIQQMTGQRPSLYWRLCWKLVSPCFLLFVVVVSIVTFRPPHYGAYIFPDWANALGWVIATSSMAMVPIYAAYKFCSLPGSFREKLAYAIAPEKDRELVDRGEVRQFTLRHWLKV

Thromboxane A2 receptor = target: T4, Thromboxane A2 receptor (Homo sapiens, UniProt P21731); assay type: functional, cell-based
T4 sequence (P21731 whole entry): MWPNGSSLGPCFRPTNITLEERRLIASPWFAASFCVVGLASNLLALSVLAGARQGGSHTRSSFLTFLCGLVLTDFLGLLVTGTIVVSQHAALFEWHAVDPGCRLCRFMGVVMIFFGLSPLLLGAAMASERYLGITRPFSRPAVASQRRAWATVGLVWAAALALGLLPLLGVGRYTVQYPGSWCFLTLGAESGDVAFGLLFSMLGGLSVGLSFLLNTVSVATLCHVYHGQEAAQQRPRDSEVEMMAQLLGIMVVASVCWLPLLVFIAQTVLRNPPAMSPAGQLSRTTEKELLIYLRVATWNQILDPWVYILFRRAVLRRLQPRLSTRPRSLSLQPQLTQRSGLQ

Estrogen receptor = target: T5, Estrogen receptor (Homo sapiens, UniProt P03372)
T5 sequence (P03372 whole entry): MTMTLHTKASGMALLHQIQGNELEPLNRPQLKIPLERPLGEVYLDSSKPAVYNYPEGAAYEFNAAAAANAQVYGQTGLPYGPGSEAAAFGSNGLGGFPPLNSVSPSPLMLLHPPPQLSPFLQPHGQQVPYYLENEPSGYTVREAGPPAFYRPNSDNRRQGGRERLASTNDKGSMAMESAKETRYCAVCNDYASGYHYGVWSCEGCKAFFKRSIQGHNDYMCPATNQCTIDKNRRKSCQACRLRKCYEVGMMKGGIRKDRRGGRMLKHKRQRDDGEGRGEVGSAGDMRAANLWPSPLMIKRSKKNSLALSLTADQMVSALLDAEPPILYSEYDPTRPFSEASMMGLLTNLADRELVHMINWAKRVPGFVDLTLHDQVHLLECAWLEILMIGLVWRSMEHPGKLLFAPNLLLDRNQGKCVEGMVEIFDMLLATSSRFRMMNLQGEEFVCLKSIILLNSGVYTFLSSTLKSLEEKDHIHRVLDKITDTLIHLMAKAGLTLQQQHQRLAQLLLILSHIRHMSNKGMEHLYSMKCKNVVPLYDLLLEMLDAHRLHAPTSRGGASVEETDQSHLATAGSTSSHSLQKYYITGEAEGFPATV

[7] = target: Prostaglandin G/H synthase 1 (Homo sapiens, UniProt P23219); assay type: functional
Sequence of Prostaglandin G/H synthase 1 (P23219 whole entry): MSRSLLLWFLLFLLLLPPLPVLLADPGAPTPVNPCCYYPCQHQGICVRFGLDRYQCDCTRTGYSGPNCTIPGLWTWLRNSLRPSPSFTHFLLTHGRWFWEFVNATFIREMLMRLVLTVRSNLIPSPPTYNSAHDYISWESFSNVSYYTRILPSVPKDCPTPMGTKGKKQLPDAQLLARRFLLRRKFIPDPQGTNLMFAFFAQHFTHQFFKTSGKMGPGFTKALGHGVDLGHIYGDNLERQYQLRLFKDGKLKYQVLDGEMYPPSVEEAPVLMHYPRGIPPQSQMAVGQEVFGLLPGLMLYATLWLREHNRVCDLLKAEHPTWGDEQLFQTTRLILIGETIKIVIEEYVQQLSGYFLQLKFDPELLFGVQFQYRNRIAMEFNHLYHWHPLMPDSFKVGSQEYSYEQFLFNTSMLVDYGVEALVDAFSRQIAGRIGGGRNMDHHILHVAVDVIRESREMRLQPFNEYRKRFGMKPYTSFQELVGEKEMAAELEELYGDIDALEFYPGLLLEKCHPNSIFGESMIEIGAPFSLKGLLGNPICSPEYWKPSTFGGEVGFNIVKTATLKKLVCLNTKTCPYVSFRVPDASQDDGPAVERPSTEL
Further: assay procedure not described here.

SMILES	AC50 [1]	AC50 [2]	AC50 (Histamine H3 receptor)	AC50 (Mu-type opioid receptor)	AC50 [3]	AC50 (Progesterone receptor)	AC50 (Cannabinoid receptor 1)	AC50 [4]	AC50 (Histamine H2 receptor)	AC50 (Acetylcholinesterase)	AC50 [5]	AC50 [6]	AC50 (Thromboxane A2 receptor)	AC50 (Estrogen receptor)	AC50 [7]
CN(C)CCC=C1c2ccccc2C(C)(C)c2ccccc21	> 30 µM	4.34 µM	25 µM	24 µM	> 30 µM	> 30 µM	> 30 µM								
CCOC(=O)[C@H](CCc1ccccc1)N[C@@H](C)C(=O)N1[C@H](C(=O)O)C[C@@H]2CCC[C@@H]21	> 30 µM	> 10 µM	> 10 µM	> 30 µM	> 30 µM		> 30 µM	> 10 µM	> 10 µM						
Nc1nc(NC2CC2)c2ncn([C@H]3C=C[C@@H](CO)C3)c2n1 [ABACAVIR]	> 30 µM		> 30 µM		> 30 µM	> 30 µM	> 30 µM		> 30 µM						
CC(=O)Nc1ccc(O)cc1 [ACETAMINOPHEN]	> 30 µM	> 30 µM	> 30 µM	> 30 µM	> 30 µM	> 30 µM	> 30 µM			> 30 µM	> 30 µM	> 30 µM	> 30 µM		
CC[C@H]1OC(=O)[C@H](C)[C@@H](O[C@H]2C[C@@](C)(OC)[C@@H](O)[C@H](C)O2)[C@H](C)[C@@H](O[C@@H]2O[C@H](C)C[C@H](N(C)C)[C@H]2O)[C@](C)(O)C[C@@H](C)CN(C)[C@H](C)[C@@H](O)[C@]1(C)O [AZITHROMYCIN]	> 30 µM	> 10 µM	> 10 µM	> 10 µM			> 30 µM	> 10 µM	> 10 µM	> 30 µM	> 30 µM	> 30 µM	> 30 µM	> 30 µM	> 30 µM

Now from value to compound, other results behind:

AC50 [1]	AC50 [2]	AC50 (Histamine H3 receptor)	AC50 (Mu-type opioid receptor)	AC50 [3]	AC50 (Progesterone receptor)	AC50 (Cannabinoid receptor 1)	AC50 [4]	AC50 (Histamine H2 receptor)	SMILES	AC50 (Acetylcholinesterase)	AC50 [5]	AC50 [6]	AC50 (Thromboxane A2 receptor)	AC50 (Estrogen receptor)	AC50 [7]
> 30 µM	> 30 µM	> 30 µM	> 30 µM	> 30 µM	> 30 µM	> 30 µM	> 10 µM		CNC(=O)c1ccccc1Sc1ccc2c(/C=C/c3ccccn3)n[nH]c2c1 [AXITINIB]						
> 30 µM	> 10 µM	> 10 µM	> 30 µM	> 30 µM		> 30 µM	> 10 µM	> 10 µM	Cc1ccc(-c2cc(C(F)(F)F)nn2-c2ccc(S(N)(=O)=O)cc2)cc1 [CELECOXIB]						
> 30 µM	> 10 µM	11 µM	> 10 µM	> 30 µM		> 30 µM	7.01 µM	> 10 µM	CN(C)CCC(c1ccc(Cl)cc1)c1ccccn1 (configuration not stated) [CHLORPHENIRAMINE]						
> 30 µM	> 10 µM	> 10 µM	> 30 µM	> 30 µM		> 30 µM	> 10 µM	> 10 µM	C[C@]12CCC(=O)C=C1CC[C@@H]1[C@@H]2[C@@H](O)C[C@@]2(C)[C@H]1CC[C@]2(O)C(=O)CO [HYDROCORTISONE]						
